Results on 71 compounds are retold here after PubChem BioAssay AID179 (DTP/NCI, 2004).

The assay deals with CEM cells HIV-1 protection, formazan growth assay. Nature of the assay: NCI AIDS Antiviral Assay. As to conditions: for pIC50: measured here: growth of uninfected CEM cells. In outline: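 Five concentrations of each compound were applied to infected and uninfected human CEM cells. Protection from HIV-1 was judged from growth measured with a soluble formazan assay.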

Each structure is given as a SMILES string. pEC50, pIC50: −log10 of the molar value. “And” between values parts separate entries of the source, which are not always exact repeats. Equal values may be shown once. The source made the active and inactive calls.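 Rule for the calls: active = compounds giving half or more protection of infected cells from virus-caused growth loss, again on retest; inactive = the rest.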 Bounds are passed on as bounds.

`Cc1ccc(NC(=S)/C(=C(\[O-])c2ccc([N+](=O)[O-])cc2)[n+]2ccc(C(C)C)cc2)c(C)c1`: the pEC50 is below 3.70 and the negative logarithm of the IC50 (pIC50) is 3.80. For `CC1OC(OC2C(CO)OC(O[C@H]3CC[C@@]4(C)C(=CC[C@H]5[C@@H]6C[C@@H]7O[C@@]8(CC[C@H](C)CN8)[C@@H](C)[C@@H]7[C@@]6(C)CC[C@@H]54)C3)C(OC3OC(C)C(O)C(O)C3O)C2O)C(O)C(O)C1O` (stereo not given in full), the result was inactive. On to `N#CC(C(=O)CCCC(=O)Nc1ccccc1[N+](=O)[O-])c1c(Cl)cccc1Cl` (stereo not given), for which the pEC50 was below 3.51 and the pIC50 was below 3.51. With `COc1ccc(-c2c3c(n(C4OC(COC(C)=O)C(OC(C)=O)C(OC(C)=O)C4OC(C)=O)c(=S)c2C#N)CC(C)(C)CC3=O)cc1` (stereo not given), the pEC50 is below 3.70; the pIC50 is 4.58 and 4.27. Turning to `CC1(C)CC(=O)C(/C=N/c2nc(-c3ccc(Br)cc3)cs2)=C(O)C1`, the pEC50 was below 3.70 and the pIC50 is 3.94. As to `NNC(=O)CC(=O)Nc1ccc(Cl)cc1`, the pEC50 is below 3.70 and the pIC50 is 3.95. As for `Cc1nc2c(o1)C(=Nc1ccc(I)cc1)c1ccccc1C2=Nc1ccc(I)cc1`, the result was inactive. As for `Nc1ccc2nc3n(c2c1)C(c1c(F)cccc1F)SC3` (stereo not given), the pEC50 was below 3.70 and the pIC50 is 3.90. The matching figures for `Cc1cc(S(=O)(=O)Nc2nc(N)n(C)n2)c(S)cc1Cl`: below 3.70 and below 3.70.

Turning to `CCOC(=O)C1=CN=C2C(=O)N(c3ccccc3)N(C)C2(C)C1=N` (stereo not given), the pEC50 was below 3.70 and the negative logarithm of the IC50 (pIC50) was below 3.70. For the compound `COC(=O)C1[C@H](C(=O)OC)C1(Br)CBr` (stereo not given in full), the pEC50 was below 3.70 and the negative logarithm of the IC50 (pIC50) is 4.01. Take `CCC[n+]1noc(N)n1`: the pEC50 was below 2.82 and the negative-log IC50 (pIC50) was below 2.82. Regarding `CN(C)CCNC(=O)c1ccc(Cl)c2c(Nc3ccc(S(N)(=O)=O)cc3)c3ccccc3nc12`, the result was inactive. As to `CC(Oc1ccc(Oc2cnc3ccc(Cl)cc3n2)cc1)C(=O)O` (stereo not given), the pEC50 is below 3.85 and the negative logarithm of the IC50 (pIC50) was 4.76. For the compound `CC(C)(C)OC(=O)C1C(=O)C(C(=O)OC(C)(C)C)C23CCCCC12C(C(=O)OC(C)(C)C)C(=O)C3C(=O)OC(C)(C)C` (stereo not given), the pEC50 was below 4.52 and the pIC50 is below 4.52. Regarding `Cc1cc(=O)n(-c2ccccc2)c(=O)o1`, the result was inactive.

As for `CC(=O)Nc1ccc(C(=O)NN2C(=O)CSC2c2ccc([N+](=O)[O-])cc2)cc1` (stereo not given), the pEC50 was below 4.60 and the pIC50 is below 4.60. As for `Cc1ccc(S(=O)(=O)c2ccccc2)cc1`, the pEC50 was below 3.81 and the negative-log IC50 (pIC50) was below 3.81. As for `CN1C(=O)c2ccccc2OC12C=Cc1c(ccc3ccccc13)O2` (stereo not given), the pEC50 was below 3.71 and the pIC50 was 4.85. For the compound `CC(=O)Nc1ccc(/C=C/C(=O)c2sc(C(N)=S)nc2C)cc1`, the pEC50 is below 4.12 and the pIC50 was below 4.12. For the compound `Cc1cc(=O)oc2cc(OCc3nc4ccccc4c(=O)[nH]3)ccc12`, the pEC50 is below 3.97 and the pIC50 is below 3.97. `CCCC(=O)C1=C(O)C(Cc2c(O)c(C)c(O)c(C(=O)CCC)c2O)=C(O)C(C)(C)C1=O`: the pEC50 was below 3.70 and the negative-log IC50 (pIC50) is 4.97. Turning to `COc1nc2ncn(C(C)=O)c2c(=O)n1C`, the result was inactive. As to `O=C(Nc1ccc(C2=NCCN2)cc1)c1ccc(C(=O)Nc2ccc(C3=NCCN3)cc2)c(O)c1`, the pEC50 is 4.26 and the negative logarithm of the IC50 (pIC50) is 4.04. On the same counts, the results for `CC(=O)OCC1OC(n2c(=S)n(-c3ccc(C)cc3)c(=O)c3ccccc32)C(OC(C)=O)C(OC(C)=O)C1OC(C)=O` (stereo not given) are below 4.50 and below 4.50. The matching figures for `COc1ccc(C(=C(Cl)c2ccccc2)c2ccc(OC)cc2)cc1`: below 3.70 and 4.32. The matching figures for `O=Cc1[nH]c(=O)[nH]c(=O)c1CO`: below 3.70 and 4.03. With `O[Si](c1ccc(C(F)(F)F)cc1)(c1cccc(C(F)(F)F)c1)c1cccc(C(F)(F)F)c1`, the pEC50 was below 3.70 and the pIC50 was 4.98.

For the compound `C[s+]1c2ccccc2c2ccccc21`, the pEC50 is below 4.64 and the pIC50 was 4.73. The matching figures for `CN1C=C/C(=C/[N+](=O)[O-])N(C)C1=O`: below 3.70 and below 3.70. On the same counts, the results for `CC(C)(C)CC(C)(C)c1cc2c(O)c(c1)Cc1cc(C(C)(C)CC(C)(C)C)cc(c1O)Cc1cc(C(C)(C)CC(C)(C)C)cc(c1O)Cc1cc(C(C)(C)CC(C)(C)C)cc(c1O)Cc1cc(C(C)(C)CC(C)(C)C)cc(c1O)C2` are below 5.06 and below 5.06.

With `C/C(=N\NS(=O)(=O)c1ccc(C)cc1)c1ccc[n+]([O-])n1`, the outcome was inactive.

With `C/C(=N\NC(=O)c1ccncc1)c1cccc(/C(C)=N/NC(=O)c2ccncc2)n1.O=S(=O)([O-])[O-].[Fe+2]`, the pEC50 is below 3.70 and the pIC50 was 4.79. On the same counts, the results for `COS(=O)(=O)OC1(SC)C=C(c2ccccc2)SS1` (stereo not given) are below 3.70 and 3.97.

`O=P1(NC2CCCC2)OCC2(CO1)COP(=O)(NC1CCCC1)OC2` (stereo not given): the pEC50 is below 3.70 and the pIC50 is below 3.70.

As to `Cc1n[nH]c(C)c1N=O`, the pEC50 is below 3.70 and the pIC50 was 5.37.

In the case of `[Au+].c1c[n-]cn1.c1ccc([PH+](c2ccccc2)c2ccccc2)cc1`, the pEC50 was below 4.86 and the pIC50 was 5.20. With `Nc1nc2c(ncn2C2C=CC(CO)C2)c(=O)[nH]1` (stereo not given), the negative logarithm of the EC50 (pEC50) is 4.44 and the negative-log IC50 (pIC50) is 3.49.

For `CCOC(=O)c1cc(Sc2ccc(N)c(C(=O)OCC)c2)ccc1N`, the pEC50 is below 3.70 and the pIC50 is 4.81.

Consider `CC/C(Cl)=N\OC(=O)Nc1ccc(OC)c(C)c1`, for which the pEC50 was below 4.70 and the pIC50 was 4.80. For `O=C1Nc2ccc(Cl)cc2C(c2ccccc2Cl)=NC1O` (stereo not given), the result was inactive. On the same count and under the same terms, the value for `CC(=O)c1sc(Nc2ccc(Cl)c(Cl)c2)nc1C` was “inactive”. On to `C=C1CCCCCCCCC/C=C/1SCCCSC`, for which the pEC50 is below 3.70 and the pIC50 is below 3.70. As to `ON/N=C/c1cc2c(cc1Br)OCO2`, the pEC50 was below 3.58 and the negative logarithm of the IC50 (pIC50) was 3.73. Consider `CCC1OC2C(CC=C(C)C)=C3OC(C)(O)C(C)(CC)C(=O)C3=C3OC(=O)C=C1C32` (stereo not given), for which the pEC50 was below 3.70 and the negative logarithm of the IC50 (pIC50) is 4.48. As to `Nc1nc2c(ncn2C2C=CC(CO)CC2)c(=O)[nH]1` (stereo not given), the pEC50 was below 3.70 and the negative-log IC50 (pIC50) is below 3.70. For the compound `Cc1ccc(CCCCCOc2ccc(C3=NCCO3)cc2)s1`, the result was inactive. In the case of `COc1ccc2nc3ccc(OC)cc3c(S(=O)Cc3ccc([N+](=O)[O-])cc3)c2c1` (stereo not given), the pEC50 was below 3.70 and the negative-log IC50 (pIC50) was 5.49.

In the case of `CSc1nnc2sc(=S)[nH]n12`, the pEC50 was below 3.70 and the pIC50 was below 3.70. For the compound `COc1ccc(CN(Cc2ccc(OC)cc2)C(=O)CC2(O)C=CCC2)cc1` (stereo not given), the pEC50 was below 3.70 and the pIC50 was 4.12. As to `CC(=O)Oc1ccc2c(=O)c(C(C)=O)coc2c1`, the result was inactive. Regarding `O=C(O)CCS(=O)(=O)O`, the pEC50 was below 3.70 and the pIC50 was below 3.70.

As for `OC1c2ccccc2CC12Cc1ccccc1C2` (stereo not given), the pEC50 is below 3.70 and the pIC50 is 3.84.

Consider `O=c1[nH]nc(-c2ccc3ccccc3c2)[nH]1`, for which the negative logarithm of the EC50 (pEC50) was 3.87 and the negative-log IC50 (pIC50) was below 3.70. On the same counts, the results for `CCOC(=O)C(=O)C1C(=O)N(C)C2(C)CC1c1ccccc1O2` (stereo not given) are below 3.70 and below 3.70. As to `COc1ccc(OC2(c3cc(OC)ccc3OC)OC(=O)c3ccccc32)cc1` (stereo not given), the pEC50 is below 4.88 and the pIC50 is below 4.88. `COC(=O)CC1C2CCC1C(=O)C2` (stereo not given): the pEC50 is below 3.70 and the negative logarithm of the IC50 (pIC50) is below 3.70. In the case of `Cc1cc(=O)[nH]c(NN2C(Cl)C(=O)C2c2cccc(Cl)c2)n1` (stereo not given), the pEC50 was below 3.70 and the pIC50 is 4.52.

Turning to `Cc1cc(C)nc(NC(=O)Nc2ccccc2)c1`, the pEC50 is below 3.70 and the pIC50 is below 3.70. On to `CC1Cn2c(nnc2-c2ccccc2O)S1` (stereo not given), for which the outcome was inactive. Turning to `COC1(C)CCC2(O)C(=O)OC3C(O)COC32O1` (stereo not given), the pEC50 was below 3.70 and the negative-log IC50 (pIC50) was below 3.70. On to `O=C1OCC(O)C(C2OC(=O)c3cc(O)c(O)c(O)c3-c3c(O)c(O)c(O)c4c3C(=O)OC2C4c2c(O)cc(O)c3c2OC(c2ccc(O)c(O)c2)C(O)C3)OC(=O)c2cc(O)c(O)c(O)c2-c2c1cc(O)c(O)c2O` (stereo not given), for which the pEC50 is below 4.65 and the pIC50 is below 4.65.

Turning to `N.N.N.N.O=C([O-])C(=O)O.O=C([O-])C(=O)[O-].[Co+3]`, the outcome was inactive. As to `CCOC(=O)C(=[N+]=[N-])C(=O)C1(C(=O)OCC)CCN(C(=O)c2ccccc2)C1=O` (stereo not given), the pEC50 is below 3.70 and the pIC50 was below 3.70. As for `O=C(O)c1c(O)ccc(O)c1C(=O)Nc1ccc(/C=C/c2ccc(NC(=O)c3c(O)ccc(O)c3C(=O)O)cc2S(=O)(=O)O)c(S(=O)(=O)O)c1`, the pEC50 is 4.75 and the pIC50 is below 3.70. On the same counts, the results for `C[C@H]1CCCCC[C@@H]2CC(=O)CC2C(=O)CCC(=O)O1` (stereo not given in full) are below 3.70 and below 3.70. On the same counts, the results for `CC(C)(C)OC(=O)NC(Cc1ccc(O)cc1)/C(O)=C(\C#N)c1c(F)c(F)c(F)c(F)c1F` (stereo not given) are below 3.70 and 3.91.

As for `CCCCCCC(=O)C/C(CCC(=O)N(Cc1ccccc1)Cc1ccccc1)=N\NC(N)=O`, the pEC50 was below 4.42 and the negative logarithm of the IC50 (pIC50) is below 4.42. On to `NS(=O)(=O)c1ccc(N=Nc2c(O)n(-c3ccccc3)n(-c3ccccc3)c2=O)cc1`, for which the pEC50 is below 3.70 and the pIC50 was 4.10.

In the case of `C=C1CC[N+]2(CC(C)C)CCCC12` (stereo not given), the pEC50 was below 3.30 and the pIC50 is below 3.30. Turning to `Brc1ccc2c(c1)[C@H]1CCc3c([nH]c4ccccc34)[C@H]1N2`, the pEC50 was below 3.70 and the negative logarithm of the IC50 (pIC50) was 4.59.
